Measured values: patent publication US6692928B1, “Methods for identifying cardiovascular agents” (New England Medical Center Hospitals, Inc., priority 1996, dated 2004)
Like-named read-outs stand apart in the source and are kept apart here.

How the values were obtained:
eNOS [1] = test: eNOS activity in ovine pulmonary aortic endothelial cells (PAEC); type: cell-based; conditions: for basal eNOS activity: no E2
Text: (§1) Several molecular and pharmacologic interventions can disrupt this rapid ERα-eNOS signaling pathway.

vascular injury response = conditions: 14 days after carotid injury, physiologic levels
Text: Vascular medial are increases and smooth muscle cell proliferation were quantitated 14 days following cartoid injury in ovariectomized female mice treated with vehicle or physiologic levels of 17-β estradiol.

eNOS [2] = test: eNOS activity in transfected COS 7 cells; type: cell-based
Text: In contrast, ERα and eNOS coexpression had no effect on basal (unstimulated) eNOS activity (102+/−33% of activity in sham-transfected cells (ERα(−)).

[3] = test system: endothelium-denuded aortic rings; test: Mouse aortic vascular ring bioassay, phenylephrine-induced constriction; conditions: male mice
Text: An eight-chamber vascular ring bioassay system may be used to study vasomotion in vascular rings from mice. Vascular contraction and relaxation may be examined in endothelial-intact and endothelial-denuded mouse aortic vascular rings. […] The mouse aortic ring experiments may be carried out in rings from wild type, ERαKO and ERβKO animals.

MAP kinase = MAP kinase activity in PAEC; type: cell-based, ovine; conditions: 5 minute exposure, 10^−8M E2
Text: as §1

human eNOS gene = test: eNOS luciferase reporter in rat cardiomyocytes; type: cell-based; conditions: 1 nM E2, 48 hours
Text: (§2) ER-regulation of two cardiac target genes, iNOS and eNOS, were studied in transient transfection experiments using either an iNOS-luciferase reporter plasmid (containing 1.1 Kb of the 5′-flanking region of the human iNOS gene driving expression of the luciferase cDNA) or an eNOS luciferase reporter plasmid (containing 1.6 Kb of the 5′ flanking region of the human eNOS gene driving expression of the luciferase cDNA). […] In these experiments, E2 increased the abundance of iNOS protein (50+/−23-fold; n=3; p<0.05) as well as eNOS protein (15.7+/−4.3 fold; n=3; p<0.05).

eNOS protein = eNOS protein level by immunoblotting; type: cell-based, rat; conditions: n=3
Text: as §2

human iNOS gene = test: iNOS-luciferase reporter in rat cardiomyocytes; type: cell-based; conditions: 1 nM E2, 48 hours
Text: as §2

iNOS protein = iNOS protein level by immunoblotting; type: cell-based, rat; conditions: n=3
Text: as §2

estrogen receptor = target: T1, estrogen receptor (Homo sapiens, UniProt P03372); test: ERE-Luc reporter activation of the estrogen receptor in transfected cells; type: cell-based
T1 construct: expressed in transfected cells; host or cells: PVEC, HSVSMC, human aortic VSMC, HeLa (transient transfection)
T1 sequence (P03372 1-595): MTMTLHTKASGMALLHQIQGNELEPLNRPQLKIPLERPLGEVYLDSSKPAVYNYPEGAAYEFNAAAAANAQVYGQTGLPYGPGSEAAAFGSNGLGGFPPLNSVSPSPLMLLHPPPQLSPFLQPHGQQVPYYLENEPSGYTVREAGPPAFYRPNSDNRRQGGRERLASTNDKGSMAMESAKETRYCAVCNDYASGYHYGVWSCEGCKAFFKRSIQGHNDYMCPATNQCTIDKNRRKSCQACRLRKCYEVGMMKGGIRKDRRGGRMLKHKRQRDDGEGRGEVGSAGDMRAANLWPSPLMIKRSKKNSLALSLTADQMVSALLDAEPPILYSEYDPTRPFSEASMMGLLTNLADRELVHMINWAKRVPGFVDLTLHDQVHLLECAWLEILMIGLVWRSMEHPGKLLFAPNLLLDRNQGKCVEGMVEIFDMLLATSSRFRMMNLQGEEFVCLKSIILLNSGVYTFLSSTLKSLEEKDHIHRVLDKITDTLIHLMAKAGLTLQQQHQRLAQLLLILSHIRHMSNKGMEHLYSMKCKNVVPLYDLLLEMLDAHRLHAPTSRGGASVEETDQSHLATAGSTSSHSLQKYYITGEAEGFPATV
Procedure: The cells were then cultured for 48 hours in serum-free medium in the absence or presence of EGF (100 ng/ml).

VEGF expression [4] = test: pmVEGF-Luc reporter in GH3B6 cells; type: cell-based, rat; conditions: estrogen 10^−6M, 48 hours
Text: (§3) One useful reporter construct is pmVEGF-Luc. In this reporter construct, a 1.6 kB fragment of genomic DNA located upstream of the murine vascular endothelial cell growth factor (VEGF) gene has been inserted into the pGL2-Basic luciferase reporter plasmid (Promega; Madison, Wis.). The 1.6 kB fragment includes the transcription start site, 1.2 kB of sequence upstream of the start site, and 0.4 kB of sequence downstream of the start site. Useful variants of this reporter plasmid can be made by deleting a portion of the murine VEGF control region. For example, pVEGF-Luc-Apa/Kpn is identical to pVEGF-luc except that 455 bp at the 5′ end of the 1.6 kB fragment have been removed; pVEGF-Luc-Mlu is identical to pVEGF-luc except that 768 bp at the 5′ end of the 1.6 kB fragment have been removed; and pVEGF-Luc-Sma is identical to pVEGF-luc except that 455 bp at the 5′ end of the 1.6 kB fragment have been removed. Similar reporter constructs can be created using upstream regulatory sequences from the human VEGF gene. For example, phVEGF-Luc is a reporter construct in which 5.1 kb genomic DNA upstream of the human VEGF coding sequence inserted into the pGL2-Basic luciferase reporter plasmid. This particular construct includes 3.4 kb of sequence upstream of the VEGF transcription start site and 1.7 kb untranslated sequence downstream of the transcription start site.

pERE-Luc reporter = pERE-Luc reporter in GH3B6 cells; type: cell-based, rat; conditions: same conditions (estrogen 10^−6M, 48 hours)
VEGF expression [5] = test: VEGF expression in rat VSMC (A7r5 cells); type: cell-based
PAEC = test: Protein tyrosine phosphorylation in PAEC; type: cell-based
Procedure: An immortalized PAEC line retains the ER-eNOS activation pathway completely and provides a useful reagent for identifying other members of the pathway. Experiments indicate that a number of proteins are rapidly tyrosine phosphorylated following exposure of PAEC to estrogen. This occurs within 5-10 minutes and includes a series of low molecular weight proteins (15-40 Kd), as well as several larger proteins.

VEGF gene [6] = test: VEGF-luciferase reporter, transiently transfected HSVSMC; type: cell-based, human; conditions: VEGF-luciferase + estrogen receptor α construct, 1 μM estrogen, n=12
Text: (§4) To study the role of estrogen on expression of the VEGF gene in vascular smooth muscle cells, human saphenous vein smooth muscle cells (HSVSMC) and HeLa cells were transiently transfected with a VEGF-luciferase reporter construct. In this reporter construct, expression of luciferase is under the control of a 1.2 kB fragment of the murine VEGF gene regulatory region. The cells were also transfected with an estrogen receptor α expression construct. All of the results described below have been normalized for transfection efficiency.

VEGF expression [7] = test: pmVEGF-Luc reporter in WB572 cells; type: cell-based, human; conditions: estrogen 10^−6M, 48 hours
Text: as §3

[8] = estrogen replacement therapy, by as much as; cited from earlier work
vascular injury = test: Mouse carotid injury model, L-NAME and eNOS knockout studies; type: in vivo, mice
Text: Two endpoints were routinely analyzed. First, computerized morphometrics were collected to examine the extent of vascular injury by quantitating medial area measurements. Second, BrdU labeling of VSMC and endothelial cells that proliferated following the injury was quantitated, which required extensive immunohistochemical staining for (i) BrdU, (ii) smooth muscle α-actin, and (iii) Factor VIII-related antigen (endothelial cells).
The studies may also be carried out in wild type mice and mice lacking ERα, ERβ, eNOS, iNOS, or nNOS, or in mice lacking a combination of these proteins. The level of NOS isoforms may be examined using isoform-specific antibodies.

VEGF gene [9] = test: VEGF-luciferase reporter, transiently transfected HeLa cells; type: cell-based
Text: as §4

C[C@]12CC[C@@H]3c4ccc(O)cc4CC[C@H]3[C@@H]1CC[C@H]2O [17α-estradiol]
eNOS activity (eNOS [1]; PAEC, 10^−12 to 10^−6M): had no effect

C[C@]12CC[C@@H]3c4ccc(O)cc4CC[C@H]3[C@@H]1CC[C@@H]2O [E2, 17β-estradiol]
vascular injury measures (medial area increase, smooth muscle cell proliferation) (vascular injury response; estrogen receptor α knockout ovariectomized female mice): markedly inhibited all measures of vascular injury | vascular injury measures (medial area increase, smooth muscle cell proliferation) (vascular injury response; wild-type ovariectomized female mice): markedly inhibited all measures of vascular injury | eNOS activity (eNOS [2]; COS 7 cells transfected with eNOS alone): had no effect | increase in eNOS activity (eNOS [2]; COS 7 cells transfected with eNOS and ERα, acute stimulation): > 3 fold | phenylephrine-induced constriction ([3]; chronic (18h) treatment): inhibited contraction | MAP kinase activity (MAP kinase): causes an increase in MAP kinase activity | eNOS activity (eNOS [1]; PAEC, E2 10^−8M): stimulates eNOS activity | time to maximal eNOS stimulation (eNOS [1]; PAEC, E2 10^−8M): ≤ 5 min | increase of eNOS reporter activity (human eNOS gene; n=9): 6.9+/−0.06 fold | increase in abundance of eNOS protein (eNOS protein): 15.7+/−4.3 fold | increase of iNOS reporter activity (human iNOS gene; n=9): 8.1+/−0.02 fold | increase in abundance of iNOS protein (iNOS protein): 50+/−23 fold

COc1cccc(-c2cc(=O)c3ccccc3o2)c1N [PD98059]
inhibition of acute eNOS response to E2 (eNOS [1]; PAEC): completely inhibit

herbamycin A
inhibition of acute eNOS response to E2 (eNOS [1]; PAEC): completely inhibit | basal eNOS activity (eNOS [1]; PAEC): do not alter basal eNOS activity

C[C@]12CC[C@@H]3c4ccc(O)cc4C[C@@H](CCCCCCCCC[S+]([O-])CCCC(F)(F)C(F)(F)F)[C@H]3[C@@H]1CC[C@@H]2O (stereo partly drawn) [ICI 182,780]
inhibition of E2-induced increase in MAP kinase activity (MAP kinase): completely inhibited | inhibition of acute eNOS response to E2 (eNOS [1]; PAEC): fully inhibited | inhibition of the enhanced eNOS response (eNOS [1]; PAEC overexpressing ER): inhibited completely | basal eNOS activity (eNOS [1]; PAEC): caused no change | inhibition of E2 activation of eNOS reporter (human eNOS gene): blocked fully | inhibition of E2 activation of iNOS reporter (human iNOS gene): completely inhibited

PDGF
estrogen receptor activation (estrogen receptor; all cell types studied (PVEC, HSVSMC, human aortic VSMC, HeLa)): did not activate the estrogen receptor

estrogen
effect on luciferase activity (VEGF expression [4]): no effect | activation of pERE-Luc reporter (pERE-Luc reporter): 8 fold | activation of VEGF expression (VEGF expression [5]): did not activate VEGF expression | time of protein tyrosine phosphorylation after exposure (PAEC): 5 to 10 min | increase of luciferase expression (VEGF gene [6]): 1.7±0.2 fold | increase in luciferase activity (VEGF expression [7]): 1.8 fold | reduction of the incidence of coronary artery disease [8]: 30-50% | protection against injury (medial area endpoint) (vascular injury; eNOS KO mice, ovariectomized female): still able to protect against injury | increase of luciferase expression (VEGF gene [9]; HeLa cells co-transfected with estrogen receptor α expression plasmid, n=21): 4.2±0.8 fold | effect on luciferase expression (VEGF gene [9]; HeLa cells without estrogen receptor α, estrogen containing media): no effect

CC/C(=C(\c1ccccc1)c1ccc(OCCN(C)C)cc1)c1ccccc1 [tamoxifen]
inhibition of E2-induced increase in MAP kinase activity (MAP kinase): completely inhibited | inhibition of acute eNOS response to E2 (eNOS [1]; PAEC): fully inhibited | basal eNOS activity (eNOS [1]; PAEC): caused no change

O=c1c(-c2ccc(O)cc2)coc2cc(O)cc(O)c12 [genistein]
inhibition of acute eNOS response to E2 (eNOS [1]; PAEC): completely inhibit | basal eNOS activity (eNOS [1]; PAEC): do not alter basal eNOS activity

COC(=O)[C@@H](N)CCCNC(=N)N[N+](=O)[O-] [L-NAME]
effect on the 17β estradiol inhibition of contraction [3]: reversed the inhibition | effect on estrogen protection against vascular injury (medial area) (vascular injury; co-administration with estrogen, ovariectomized female mice): negated

EGF: epidermal growth factor
effect on luciferase activity (estrogen receptor; HeLa cells, EGF 100 ng/ml, 48 hours, serum-free): no effect | increase in luciferase activity (estrogen receptor; PVEC, HSVSMC and human aortic VSMC, EGF 100 ng/ml, 48 hours, serum-free): ~3 fold
